The values that follow come from article PMC5563523, “Discovery of a ROCK inhibitor, FPND, which prevents cerebral hemorrhage through maintaining vascular integrity by interference with VE-cadherin” (Cell Death Discovery, 2017).

This test addresses ROCK1 (Homo sapiens, UniProt Q13464). Put plainly: Z'-LYTE kinase assay with ROCK1 enzyme, peptide substrate and […] ATP. The test is classed as biochemical.

Molecules are shown by their SMILES.

Chain of ROCK1 (Q13464 2-1354): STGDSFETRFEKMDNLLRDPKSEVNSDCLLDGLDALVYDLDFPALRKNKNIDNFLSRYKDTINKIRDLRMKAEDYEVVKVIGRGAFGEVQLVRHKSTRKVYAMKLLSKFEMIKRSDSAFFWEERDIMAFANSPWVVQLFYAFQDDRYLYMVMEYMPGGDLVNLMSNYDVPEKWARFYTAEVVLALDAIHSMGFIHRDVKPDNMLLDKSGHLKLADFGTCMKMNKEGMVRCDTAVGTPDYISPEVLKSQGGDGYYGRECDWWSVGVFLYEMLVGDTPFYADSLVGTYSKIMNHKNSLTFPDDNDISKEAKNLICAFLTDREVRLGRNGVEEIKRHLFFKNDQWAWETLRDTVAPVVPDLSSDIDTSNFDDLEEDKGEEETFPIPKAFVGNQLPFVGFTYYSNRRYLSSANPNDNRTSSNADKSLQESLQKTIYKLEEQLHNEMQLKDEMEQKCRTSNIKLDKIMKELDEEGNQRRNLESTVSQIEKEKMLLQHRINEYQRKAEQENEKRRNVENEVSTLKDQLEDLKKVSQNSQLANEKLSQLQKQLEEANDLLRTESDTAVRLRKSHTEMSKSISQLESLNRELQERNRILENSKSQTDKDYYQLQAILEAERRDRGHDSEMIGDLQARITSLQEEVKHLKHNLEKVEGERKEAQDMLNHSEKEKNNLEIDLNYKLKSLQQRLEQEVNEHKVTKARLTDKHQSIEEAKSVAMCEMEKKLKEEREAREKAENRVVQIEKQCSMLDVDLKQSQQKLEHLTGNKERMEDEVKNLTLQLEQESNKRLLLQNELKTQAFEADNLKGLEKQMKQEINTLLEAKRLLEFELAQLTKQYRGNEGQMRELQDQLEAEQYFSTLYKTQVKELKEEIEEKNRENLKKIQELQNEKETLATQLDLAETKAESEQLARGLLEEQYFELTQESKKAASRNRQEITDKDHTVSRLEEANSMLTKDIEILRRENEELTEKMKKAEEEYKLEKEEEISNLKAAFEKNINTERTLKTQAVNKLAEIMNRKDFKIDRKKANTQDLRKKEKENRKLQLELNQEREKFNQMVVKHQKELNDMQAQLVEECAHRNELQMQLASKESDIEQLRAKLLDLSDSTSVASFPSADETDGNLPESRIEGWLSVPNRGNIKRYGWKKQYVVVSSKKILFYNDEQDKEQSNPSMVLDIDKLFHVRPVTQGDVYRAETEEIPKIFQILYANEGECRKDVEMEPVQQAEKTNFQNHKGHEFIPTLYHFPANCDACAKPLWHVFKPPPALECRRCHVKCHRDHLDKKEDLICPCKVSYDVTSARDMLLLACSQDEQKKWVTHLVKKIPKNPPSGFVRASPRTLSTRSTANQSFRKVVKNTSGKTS

For `Nc1nc(CN2CCN(c3ccccc3F)CC2)nc(Nc2cccc3ccccc23)n1` [FPND, 6-[4-(2-fluorophenyl)-1-piperazinyl]methyl-N-1-naphthyl-1,3,5-triazine-2,4-diamine], the IC50 – broadly, the concentration that inhibits the measured activity by half – was 11.2 ± 2.2 µM.
